Reference: paper PMC5519633, “Endolysosomal targeting of a clinical chlorin photosensitiser for light-triggered delivery of nano-sized medicines” (Scientific Reports, 2017)

Legend:
[1] = standard reference compound in deuterated methanol; cited from earlier work
Source text: For the determination of the singlet oxygen quantum yield (ΦΔ), deuterated methanol (CD3OD) was used since singlet oxygen has a relatively long lifetime in deuterated solvents. To confirm that the methanolic solutions of the conjugates and chlorin e6 at the concentrations studied were monomeric, absorption ...

[2] = Absorption spectra as a function of concentration (test for aggregation); type: physicochemical; conditions: methanolic solution; up to 8 μM; 398 nm for conjugates, 399 nm for chlorin e6
Procedure: For the determination of the singlet oxygen quantum yield (ΦΔ), deuterated methanol (CD3OD) was used since singlet oxygen has a relatively long lifetime in deuterated solvents. To confirm that the methanolic solutions of the conjugates and chlorin e6 at the concentrations studied were monomeric, absorption spectra were recorded as a function of concentration. […] The singlet oxygen quantum yields in deuterated methanol were measured using a standard reference compound, Rose Bengal (ΦΔ = 0.76)[43] using matched reference solution absorbances at the laser wavelength of 532 nm. Using standard zero-point intercept analysis of the singlet oxygen decays, the quantum yield of chlorin e6 was calculated as 0.67, which is in good agreement with the literature, as reviewed by Redmond et al.[43]. Morjzisova et al. reported the quantum yields of several chlorins in dimethylformamide and measured a value of 0.63 for chlorin e6, and observed a similar value for another clinical chlorin PDT photosensitiser, mTHPC (0.68) and disulfonated tetraphenyl chlorin (0.66)[44].
For the singlet oxygen studies, absorption spectra of the compounds were measured using a Perkin-Elmer Lambda 25 UV/Vis spectrometer (Perkin-Elmer, Beaconsfield, UK) with quartz cuvettes. […]

[3] = Singlet oxygen quantum yield by time-resolved 1270 nm phosphorescence in deuterated methanol; type: physicochemical; conditions: aerated deuterated methanol (CD3OD); 532 nm laser excitation; absorbance matched to Rose Bengal reference; zero-time intercept analysis; estimated experimental error +/- 0.06
Procedure: For the singlet oxygen studies, absorption spectra of the compounds were measured using a Perkin-Elmer Lambda 25 UV/Vis spectrometer (Perkin-Elmer, Beaconsfield, UK) with quartz cuvettes. The singlet oxygen phosphorescence at 1270 nm was detected using time-resolved photon counting from aerated solutions in deuterated methanol (CD3OD) in quartz cuvettes. […] Integrated time-resolved phosphorescence traces were analysed using FluoFit software (PicoQuant GmbH, Berlin, Germany) to extract the singlet oxygen decay lifetime. […]

MC28 cells [4] = assay: Cellular uptake and subcellular localisation, confocal microscopy with LysoTracker Green; type: cell-based, rat; conditions: same concentration and image intensity scale as the conjugates
Procedure: Cells were seeded in small Petri dishes, with a glass cover slip bottom window for use with an inverted microscope (Fluorodish, World Precision Inst. UK), and allowed to attach overnight. Cells were incubated for 24 h with the compounds (2.5 µM). Afterwards, culture medium was removed and replaced with fresh medium containing Lysotracker Green (100 nM) for 30 min before microscope imaging. Cells were washed 2 times with PBS and incubated with drug-free/phenol red-free medium for confocal imaging using an Olympus Laser scanning confocal microscope (FluoView FV1000, 60x magnification, NA 1.20, Olympus UK Ltd, Essex, UK). Fluorescence from the photosensitiser was recorded within the range of 620–720 nm using a 405 nm laser for the excitation. For LysoTracker Green, cells were illuminated at 488 nm and the fluorescence signal was recorded at 500–550 nm. Colocalisation analysis and image processing of the 16-bit images were performed with ImageJ software.

[5] = in dimethylformamide; cited from earlier work
[6] = system: human pharyngeal FaDu carcinoma cells; conditions: cited from earlier work
Source text: The lower uptake of the free chlorin is consistent with its lower PDT efficacy compared to the conjugates, as discussed below. […] Figure 3H and I show sequential images ...

MC28 cells [7] = assay: In vitro PDT phototoxicity, MTT assay; type: cell-based, rat; conditions: 3.2 µM, 18 h incubation, 5 min illumination, 420 nm, 7 mW cm-2, MTT 48 h after light, three independent experiments
[8] = cited from earlier work
Source text: The rationale for selecting chlorin e6 as the photosensitiser for this study on PCI was based on its favourable photosensitising properties but also on its poor lysosomal localisation[40] and bioavailability. The cellular uptake and membrane transport of chlorin e6 has been studied in detail in relation to its acid-base properties. The structure of chlorin e6 contains three adjacent carboxylic acid functions with pKa7.9–8.3[47]which are thus only partially ionised at physiological pH leading to poor aqueous solubility, which complicates systemic administration. At lower pH, as is typical for t ...

KB cells = assay: In vitro PDT/PCI phototoxicity with saporin, MTT assay; type: cell-based, human; conditions: saporin 20 nM, without photosensitiser

O=C([O-])c1c(Cl)c(Cl)c(Cl)c(Cl)c1-c1c2cc(I)c(=O)c(I)c-2oc2c(I)c([O-])c(I)cc12.[Na+].[Na+] [Rose Bengal]
singlet oxygen quantum yield (ΦΔ) of reference standard [1]: 0.76

C=Cc1c(C)c2cc3nc(c(CC(=O)O)c4[nH]c(cc5nc(cc1[nH]2)C(C)=C5CC)c(C)c4C(=O)O)[C@@H](CCC(=O)O)[C@@H]3C [chlorin e6]
peak absorbance of the Soret band versus concentration (monomeric or aggregated) [2]: linear
singlet oxygen quantum yield (ΦΔ) [3]: 0.67
cellular uptake, intracellular fluorescence relative to the conjugates (MC28 cells [4]): much lower fluorescence
singlet oxygen quantum yield [5]: 0.63
cellular uptake of free chlorin e6 compared to dendrimer conjugates of chlorin e6 [6]: an order of magnitude lower
loss of viability (PDT) (MC28 cells [7]): less than 20%
pKa of the three carboxylic acid functions [8]: 7.9–8.3

Oc1cccc(-c2c3nc(c(-c4cccc(O)c4)c4ccc([nH]4)c(-c4cccc(O)c4)c4nc(c(-c5cccc(O)c5)c5ccc2[nH]5)CC4)C=C3)c1 [mTHPC]
singlet oxygen quantum yield [5]: 0.68

disulfonated tetraphenyl chlorin
singlet oxygen quantum yield [5]: 0.66

saporin
reduction in viability, saporin alone (KB cells): < 20%
